The record followed here is patent US20140378422A1, “Combination of a RTK inhibitor with an anti-estrogen and use thereof for the treatment of cancer” (NOVARTIS AG, priority 2012, published 2014).

One experiment concerns CAMA-1 cell line. The experiment can be described thus: CAMA-1 cell proliferation, CellTiter-Glo Luminescent Cell Viability Assay, dose matrix analysed with Chalice Analyzer. Type of experiment: cell-based. The conditions noted are these: standard media, 72 hrs, FIG. 2A. On the technique in general: ATP-based viability assays read luminescence as a measure of living cells.
Another experiment deals with metastatic breast cancer. The experiment can be described thus: Clinical trial of Compound A as single agent in metastatic breast cancer patients. Type of experiment: in vivo, human. Particulars: preliminary results.

The structures appear in SMILES notation.

Experimental for CAMA-1 cell line: Cell lines were grown at 37° C. and 5% CO2.
24 hours following plating, 20 ul of each compound dilution series was transferred to plates containing the cells, resulting in compound concentration ranges from 50 nM to 4000 nM by 3-fold dilutions and a final DMSO concentration of 0.16%. The total volume in each well was 100 ul and each dose matrix was tested in triplicate on separate assay plates.
The average and standard deviation percent inhibition relative to DMSO treated control for triplicate compound-treated wells at each concentration of compounds was determined and up-loaded to Chalice Analyzer Database.

In the case of `C[C@]12CC[C@@H]3c4ccc(O)cc4C[C@@H](CCCCCCCCC[S+]([O-])CCCC(F)(F)C(F)(F)F)[C@H]3[C@@H]1CC[C@@H]2O` (stereo partly drawn) [Fulvestrant, (7α,17β)-7-[9-[(4,4,5,5,5-Pentafluoropentyl)sulfinyl]nonyl]estra-1,3,5(10)-triene-3,17-diol], the “concentrations with a modest effect on proliferation as a single agent” value in the experiment on CAMA-1 cell line was ≥ 0.049 µM.

With `CN1CCN(c2ccc3nc(-c4c(N)c5c(F)cccc5[nH]c4=O)[nH]c3c2)CC1` [Compound A, 4-amino-5-fluoro-3-[5-(4-methylpiperazin-1-yl)-1H-benzimidazol-2-yl]quinolin-2(1H)-one], the unconfirmed partial responses in the experiment on metastatic breast cancer (patients with FGF amplified disease (FGFR1 and/or FGFR2 and/or FGF3 amplification)) amounted to 3. Also, in the experiment with metastatic breast cancer (patients with FGF amplified disease), the “patients with stable disease for greater than 24 weeks and/or a partial response that was not confirmed at four weeks” value was “five”. Further, the “patients with stable disease greater than 24 weeks” value in the experiment on metastatic breast cancer (patients with FGF-pathway non-amplified disease) is listed as 3.
